“Also recorded” adds a separate entry of the source. Read-outs that look alike come from different tables or passages of the source.
What was measured:
[1] = cited from earlier work
[2] = retrospective analysis of 1007 participants; cited from earlier work
prostate cancer tumors = conditions: cited from earlier work
[3] = Human dosimetry in the Phase I study; type: in vivo; conditions: i.v. administration of 370 MBq
Source text: For PET diagnostic radiopharmaceuticals, only a single administration is required, usually intravenously. The investigational PET radiopharmaceutical [^18F]CTT1057 will be administered accordingly, as a single intravenous (i.v.) dose of approximately 370 MBq (266-407 MBq). […] Eur J Nucl Med Mol Imaging; 42:328-54). Human dosimetry was studied in the Phase I study. The effective dose was estimated at 0.023±0.007 mSv/MBq, which is in line as well with the effective dose of the commercial product [18F]FDG (0.019 mSv/MBq) according to the EANM guideline (Boellaard R, Delgado-Bolton R, Oyen WJG, et al (2015) FDG PET/CT: EANM procedure guidelines for tumour imaging: version 2.0. Eur J Nucl Med Mol Imaging; 42:328-54) and in other publications (0.020-0.025 mSv/MBq) (Kaushik A, Jaimini A, Tripathi M, et al (2015) Estimation of radiation dose to patients from (18) FDG whole body PET/CT investigations using dynamic PET scan protocol. Indian J Med Res; 142:721-31), as well as the effective dose of other PSMA PET agents (Behr SC, Aggarwal R, VanBrocklin HF, et al (2019) Phase I Study of CTT1057, an 18F-Labeled Imaging Agent with Phosphoramidate Core Targeting Prostate-Specific Membrane Antigen in Prostate Cancer. J Nucl Med; 60(7):910-6). The radiation dose estimated from an i.v. administration of 370 MBq of [18F]CTT1057 is 8.51 mSV. […]

PSMA [4] = biological target: T1, PSMA (Homo sapiens, UniProt Q04609); conditions: phosphoramidate scaffold, irreversible binding; cited from earlier work
[5] = human dosimetry, Phase I study; cited from earlier work
[6] = Phase I, 20 prostate cancer patients (n=5 primary staging, n=15 mCRPC), approx. 370 MBq i.v.; cited from earlier work
[7] = versus urea-based PET compounds; cited from earlier work
PSMA [8] = biological target: T1, PSMA; parameters: The [^18F]CTT1057 Phase-I study in 20 prostate cancer patients; from tissue; host or cells: tumour lesions in prostate cancer patients, imaged in vivo by PET; results quoted from Behr et al 2019 and Behr et al 2017; conditions: cited from earlier work

T1 sequence (Q04609 whole entry): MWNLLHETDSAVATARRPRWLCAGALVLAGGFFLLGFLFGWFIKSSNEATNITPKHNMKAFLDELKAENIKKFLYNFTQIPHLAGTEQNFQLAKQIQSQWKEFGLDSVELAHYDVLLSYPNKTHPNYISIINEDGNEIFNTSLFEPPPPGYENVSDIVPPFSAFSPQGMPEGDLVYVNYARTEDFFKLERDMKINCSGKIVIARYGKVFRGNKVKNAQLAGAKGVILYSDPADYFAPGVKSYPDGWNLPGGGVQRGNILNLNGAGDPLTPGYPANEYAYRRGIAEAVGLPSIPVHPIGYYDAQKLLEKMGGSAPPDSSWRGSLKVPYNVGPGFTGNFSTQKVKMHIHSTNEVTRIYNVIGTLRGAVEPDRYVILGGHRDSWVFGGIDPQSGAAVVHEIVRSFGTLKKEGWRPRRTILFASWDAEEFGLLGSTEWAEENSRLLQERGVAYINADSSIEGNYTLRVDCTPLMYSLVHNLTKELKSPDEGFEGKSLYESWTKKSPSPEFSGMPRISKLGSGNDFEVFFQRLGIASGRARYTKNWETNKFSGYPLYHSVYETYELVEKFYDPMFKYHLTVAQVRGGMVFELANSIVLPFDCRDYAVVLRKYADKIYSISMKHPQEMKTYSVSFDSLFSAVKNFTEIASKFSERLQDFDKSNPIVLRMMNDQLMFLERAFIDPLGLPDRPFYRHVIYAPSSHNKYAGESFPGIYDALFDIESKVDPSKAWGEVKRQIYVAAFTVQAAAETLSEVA

## OC[C@H]1OC(O)[C@H]([18F])[C@@H](O)[C@@H]1O (stereo partly shown) [[18F]FDG, [18F]Fluorodeoxyglucose]
[1]; according to the EANM guideline
  effective dose: 0.019 mSv/MBq
[1]; other publications (Kaushik et al 2015)
  effective dose: 0.020-0.025 mSv/MBq

## O=C([O-])CN(CCN(CC(=O)[O-])Cc1cc(CCC(=O)NCCCCCC(=O)NCCCC[C@H](NC(=O)N[C@@H](CCC(=O)O)C(=O)O)C(=O)O)ccc1[O-])Cc1cc(CCC(=O)O)ccc1[O-].[68Ga+3].[OH3+] [[^68Ga]Ga-PSMA-11]
[2]
  tolerability, adverse events following infusion: well tolerated with no adverse events following infusion
Prostate cancer tumors; after radical prostatectomy, PSA <2.0 ng/ml, per-patient and per-region basis (Calais et al 2018)
  detection rates versus [18F]Fluciclovine: superior
Prostate cancer tumors; larger prospective head-to-head study (Pernthaler et al 2019)
  overall detection rate for prostate cancer recurrence versus [18F]Fluciclovine: no statistical differences

## O=C(O)CC[C@H](NP(=O)(O)OCCC[C@H](NC(=O)CC[C@H](NC(=O)CCCCCNC(=O)c1ccc([18F])cc1)C(=O)O)C(=O)O)C(=O)O [[^18F]CTT1057]
[3]
  radiation dose estimated from an i.v. administration: 8.51 mSV
PSMA [4]
  binding affinity to PSMA: irreversibly binds to PSMA with high nanomolar affinity
[5]
  effective dose: 0.023±0.007 mSv/MBq
[6]
  safety and tolerability: acceptable safety profile without any radiotracer-related adverse reactions; also recorded: safe and well tolerated; also recorded: acceptable safety profile, without any radiotracer-related adverse reactions; also recorded: study has shown an acceptable safety profile without any radiotracer-related
[7]
  exposure to kidneys and salivary glands: lower exposure to kidneys and salivary glands
PSMA [8]; Phase I study
  sensitivity of detection of metastatic lesions versus conventional imaging: higher sensitivity
PSMA [8]; another smaller study (Behr et al 2017)
  image quality versus [68Ga]Ga-PSMA-11 PET: qualitatively similar
PSMA [8]; approx. 370 MBq i.v., 1=nondiagnostic, 100=perfect study, rated by 2 Nuclear Medicine physicians
  image quality on a Visual Analog Scale (VAS) of 1 to 100: 76±5.4
